Assays:
human PKR1 = human PKR1 (Homo sapiens, UniProt Q8TCW9); assay: Competition cell-binding assay with ^125I-MIT-1 on CHO-PKR1 cells; details: PC-10 binding IC50 vs PC-7 functional IC50 (33 nM)
CHO-PKR1 cells = assay: Cell uptake, internalization and efflux of ^18F-PC-10; format: cell-based, Chinese hamster
[1] = system: CFA-induced inflamed paw (PKR1-expressing); assay: Small-animal PET of CFA-induced inflammatory pain model; format: in vivo, C57BL/6 mice
[2] = Ex vivo biodistribution in CFA-treated mice; set-up: species or system C57BL/6 mice; details: 2 h after injection

Sequence of human PKR1 (Q8TCW9 whole entry): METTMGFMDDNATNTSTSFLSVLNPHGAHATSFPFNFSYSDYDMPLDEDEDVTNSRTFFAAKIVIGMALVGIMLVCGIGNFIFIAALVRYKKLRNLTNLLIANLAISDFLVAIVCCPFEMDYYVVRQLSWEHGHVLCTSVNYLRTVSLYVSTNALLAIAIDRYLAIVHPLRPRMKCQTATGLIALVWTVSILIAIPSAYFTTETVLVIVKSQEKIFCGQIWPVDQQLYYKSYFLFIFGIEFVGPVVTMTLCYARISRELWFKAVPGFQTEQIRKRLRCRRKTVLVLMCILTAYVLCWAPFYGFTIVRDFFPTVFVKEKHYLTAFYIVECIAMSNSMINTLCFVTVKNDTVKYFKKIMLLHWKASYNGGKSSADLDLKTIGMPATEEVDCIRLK

Row | binding affinity to PKR1 lower than functional IC50 of PC-7 (human PKR1) [fold] | uptake in control paw ([1]; PET, 2 h after injection) [%ID/g] | activity in blood [2] [%ID/g] | uptake in bone [2] [%ID/g] | uptake in kidneys [2] [%ID/g] | uptake in liver [2] [%ID/g] | uptake in salivary gland [2] [%ID/g] | SMILES | time at which cell uptake reached a plateau (CHO-PKR1 cells; 37°C) [h] | time at which internalization reached a plateau (CHO-PKR1 cells; 37°C, stable up to 2 h) [h] | part of observed uptake due to internalization (CHO-PKR1 cells; acid buffer pH 2.8 wash) | time after medium replacement at which half of the activity was unbound (efflux) (CHO-PKR1 cells; after 2 h loading) [min] | time at which efflux reached a plateau (CHO-PKR1 cells; after medium replacement) [h] | decrease of uptake in inflamed paw by blocking ([1]; 1 h after injection, coinjected with excess PC-7)
1 | 3 |  |  |  |  |  |  | COc1ccc(Cn2c(NCCNC(=N)NC(=O)c3ccc(F)cc3)nc(=O)n(Cc3ccc(F)cc3)c2=O)cc1 [PC-10, N-(4-fluoro-benzoyl)-N′-{2-[5-(4-fluoro-benzyl)-1-(4-methoxy-benzyl)-4,6-dioxo-1,4,5,6-tetrahydro-[1,3,5]triazin-2-ylamino]-ethyl}-guanidine] |  |  |  |  |  | 
2 |  | 0.13 ± 0.01 | 0.22 ± 0.05 | 0.69 ± 0.12 | 5.26 ± 1.06 | 3.80 ± 1.14 | 3.05 ± 1.10 | COc1ccc(Cn2c(NCCNC(=N)NC(=O)c3ccc([18F])cc3)nc(=O)n(Cc3ccc(F)cc3)c2=O)cc1 [^18F-PC-10, N-(4-^18F-fluoro-benzoyl)-N′-{2-[5-(4-fluoro-benzyl)-1-(4-methoxy-benzyl)-4,6-dioxo-1,4,5,6-tetrahydro-[1,3,5]triazin-2-ylamino]-ethyl}-guanidine] | 0.5 | 0.5 | Approximately half | ≤ 15 | 1 | approximately 70%

Reference: article PMC3629974 (Journal of nuclear medicine : official publication, Society …, 2011)
